Test [1] addresses N-type calcium channel (α1B (Cav2.2), β3 and α2δ subunits) in stable HEK cell line (Homo sapiens (Human), UniProt Q00975). In words: Functional assay (FDSS calcium mobilization): antagonism of N-type calcium channel. The class given is cell-based. To be noted: for inhibition at 0.33 µM: HEK293; for inhibition at 0.33 µM / % Inhibition (%) at 0.33 μM: FDSS, 0.33 μM compound; for IC50: KCl (50 mM) depolarization, six-point concentration-response. The procedure:
A stable cell line (HEK parent) co-expressing the α1B (Cav2.2), β3 and α2δ subunits of the N-type calcium channel subunits was used. These cells were routinely grown as monolayers in low glucose-containing Dulbecco's Modified Eagle Medium supplemented with 10% FBS, 2 mM L-glutamine, 100 I.U./mL penicillin, 100 μg/mL streptomycin, 400 μg/mL G418 and 200 μg/mL Zeocin (split ratio=1:5). Cells were maintained in 5% CO2 at 37° C. Compounds of Formula (I) were prepared as 10 mM stocks in DMSO from neat compound, if available. Otherwise, the 5 or 10 mM DMSO stock solutions provided in-house were used.
Calcium mobilization responses to KCl depolarization were evaluated by measuring the intensity of calcium-mediated fluorescent signal in the presence of BD Calcium Assay Dye (BD Biosciences, Franklin Lakes, N.J., U.S.A.), utilizing a Functional Drug Screening System (FDSS) by Hamamatsu Corporation (Bridgewater, N.J. U.S.A.).
Twenty-four hr prior to assay, cells were seeded in clear-base poly-D-lysine-coated 384-well plates (BD Biosciences) at a density of 5,000 cells per well in culture medium and grown overnight in 5% CO2 at 37° C. On the day of assay, growth media were removed, and cells were loaded with BD calcium assay dye (BD Biosciences) for 35 min at 37° C. under 5% CO2 and then for 25 min at room temp. Utilizing the FDSS, cells were exposed to representative compounds of Formula (I) at varying concentrations, and intracellular calcium was measured for 5 min prior to the addition of 50 mM KCl for an additional 3 min of measurement.
IC50 values for representative compounds of Formula (I) were determined from six-point concentration-response experiments and represent the concentration of said compound required to inhibit 50% of the maximal response. Maximal fluorescence intensity (FI) achieved upon addition of 50 mM KCl was exported from the FDSS software and further analyzed using GraphPad Prism 3.02 (Graph Pad Software Inc., San Diego, Calif., U.S.A.). Data were normalized to the maximum average counts from quadruplicate wells for each condition in the presence of 50 mM KCl and to the minimum average counts in the presence of buffer. Theoretical curves were generated using nonlinear regression curve-fitting analysis of either sigmoidal concentration-response or sigmoidal concentration-response (variable slope), and the IC50 values with the best-fit curve determined by GraphPad Prism were reported.

For the next test, the target named is N-type calcium channel (Homo sapiens (Human), UniProt Q00975). Nature of the test: Automated electrophysiology assay (QPatch-HT whole-cell patch clamp). It counts as cell-based. The procedure: Cells were grown in T175 flasks to 50%-90% confluence. At the time of use, cells were enzymatically treated with Detachin (Genlantis, San Diego, Calif. USA), centrifuged, rinsed, and resuspended in 293 SFM II media (Life Technologies, Grand Island, N.Y. U.S.A.) supplemented with 25 mM HEPES (Sigma-Aldrich, St. Louis, Mo. U.S.A.) to a concentration of 2-3×10^6 cells/mL. Cells were added to the automated cell preparation station on the QPatch-HT (Sophion Biosciences, North Brunswick, N.J. U.S.A.), and following a 10- to30-min recovery period with gentle stirring, the assay protocol was initiated. During the automated cell preparation, cells were collected, centrifuged and resuspended in an extracellular (EC) solution containing 132 mM NaCl, 1.8 mM CaCl2, 5.4 mM KCl, 0.8 mM MgCl2, 10 mM glucose, and 10 mM HEPES (pH=7.4), adjusted with sucrose to approximately 315 m0sm. The QPlate was primed with an intracellular solution containing 135 mM CsCl, 10 mM EGTA, 4 MgATP, 0.3 NaGTP, and 20 mM HEPES (pH=7.2), adjusted to approximately 290 m0sm with deionized water and the EC solution. Cells were added to the prepared QPlate wells by robotic pipettes of the QPatch-HT.
For cells determined to be in stable whole-cell patch clamp, the EC solution was replaced with a barium (Ba)/triethylammonium (TEA) solution containing 140 mM TEA-Cl, 10 mM BaCl2, 0.8 mM MgCl2, 10 mM glucose and 10 mM HEPES (pH=7.4). High (40 mM) BaCl2 concentrations were made with adjustments to TEA-Cl (90 mM) to maintain the osmolarity. From a resting potential of −80 mV, a train of depolarizing pulses (15 pulses at 5 Hz, +20 mV) was delivered to the cell once every 30 sec for […], and the resulting currents were measured during a control period (no compound). This protocol was repeated for each subsequent addition of control buffer with or without compound (three periods total, each with four trains). The current generated in the 1st and 15th pulses of the last train of each period in the presence of each drug concentration was normalized to the current generated during the control period at the respective pulses (representing low- and high-frequency stimulation, respectively). Data from both the second and third drug application periods were analyzed for each cell. A final addition of Ba/TEA solution containing 60-100 μM CdCl2 was made to block all N-type current and to “zero” the currents for each cell. All buffer/compound additions were made using a “spitting” feature of the QPatch-HT, which added three repetitions of 5 μL solution at the beginning of each recording period.
To examine closed-state inactivation, cells were subjected to a channel-activating 50-msec depolarizing step pulse from −80 to +10 mV, followed by a 5-sec nonactivating step to voltages ranging from −130 to −60 mV in 10 mV increments and then a 50-ms step from −80 to +10 mV to assess the remaining current. Currents from the activating voltage pulse were normalized to the peak value of the test pulse following the −130 mV step and fit to a Boltzman equation to obtain the V1/2. Roscovitine (Sigma-Aldrich) was prepared as a 100 mM stock in dimethyl sulfoxide and diluted to the indicated working concentrations. […]. Compounds of Formula (I) were diluted first into dimethyl sulfoxide and then into 10% pluronic F-127 in water (Life Technologies), sonicated for 1 min and diluted into EC buffer. Vehicle controls were run in parallel in all experiments.
Unless otherwise indicated, statistics for comparing among electrophysiological results utilized a one-way analysis of variance with Fisher's least squares determination test for pair-wise comparison.

[2] abbreviates: high-frequency stimulation (15th pulse of train, 5 Hz), read-out: QPatch at High Frequency % Inhibition at 0.1 μM.
Setting [3] is: low-frequency stimulation (1st pulse of train), read-out: QPatch at Low Frequency % Inhibition at 0.1 μM.

Like-named read-outs stand apart in the source and are kept apart here.

16 compounds from patent publication US9434693B2, “Substituted pyrazoles as N-type calcium channel blockers” (Janssen Pharmaceutica NV, priority 2012, dated 2016) can be followed below.

N-type calcium channel, sequence (Q00975 whole entry): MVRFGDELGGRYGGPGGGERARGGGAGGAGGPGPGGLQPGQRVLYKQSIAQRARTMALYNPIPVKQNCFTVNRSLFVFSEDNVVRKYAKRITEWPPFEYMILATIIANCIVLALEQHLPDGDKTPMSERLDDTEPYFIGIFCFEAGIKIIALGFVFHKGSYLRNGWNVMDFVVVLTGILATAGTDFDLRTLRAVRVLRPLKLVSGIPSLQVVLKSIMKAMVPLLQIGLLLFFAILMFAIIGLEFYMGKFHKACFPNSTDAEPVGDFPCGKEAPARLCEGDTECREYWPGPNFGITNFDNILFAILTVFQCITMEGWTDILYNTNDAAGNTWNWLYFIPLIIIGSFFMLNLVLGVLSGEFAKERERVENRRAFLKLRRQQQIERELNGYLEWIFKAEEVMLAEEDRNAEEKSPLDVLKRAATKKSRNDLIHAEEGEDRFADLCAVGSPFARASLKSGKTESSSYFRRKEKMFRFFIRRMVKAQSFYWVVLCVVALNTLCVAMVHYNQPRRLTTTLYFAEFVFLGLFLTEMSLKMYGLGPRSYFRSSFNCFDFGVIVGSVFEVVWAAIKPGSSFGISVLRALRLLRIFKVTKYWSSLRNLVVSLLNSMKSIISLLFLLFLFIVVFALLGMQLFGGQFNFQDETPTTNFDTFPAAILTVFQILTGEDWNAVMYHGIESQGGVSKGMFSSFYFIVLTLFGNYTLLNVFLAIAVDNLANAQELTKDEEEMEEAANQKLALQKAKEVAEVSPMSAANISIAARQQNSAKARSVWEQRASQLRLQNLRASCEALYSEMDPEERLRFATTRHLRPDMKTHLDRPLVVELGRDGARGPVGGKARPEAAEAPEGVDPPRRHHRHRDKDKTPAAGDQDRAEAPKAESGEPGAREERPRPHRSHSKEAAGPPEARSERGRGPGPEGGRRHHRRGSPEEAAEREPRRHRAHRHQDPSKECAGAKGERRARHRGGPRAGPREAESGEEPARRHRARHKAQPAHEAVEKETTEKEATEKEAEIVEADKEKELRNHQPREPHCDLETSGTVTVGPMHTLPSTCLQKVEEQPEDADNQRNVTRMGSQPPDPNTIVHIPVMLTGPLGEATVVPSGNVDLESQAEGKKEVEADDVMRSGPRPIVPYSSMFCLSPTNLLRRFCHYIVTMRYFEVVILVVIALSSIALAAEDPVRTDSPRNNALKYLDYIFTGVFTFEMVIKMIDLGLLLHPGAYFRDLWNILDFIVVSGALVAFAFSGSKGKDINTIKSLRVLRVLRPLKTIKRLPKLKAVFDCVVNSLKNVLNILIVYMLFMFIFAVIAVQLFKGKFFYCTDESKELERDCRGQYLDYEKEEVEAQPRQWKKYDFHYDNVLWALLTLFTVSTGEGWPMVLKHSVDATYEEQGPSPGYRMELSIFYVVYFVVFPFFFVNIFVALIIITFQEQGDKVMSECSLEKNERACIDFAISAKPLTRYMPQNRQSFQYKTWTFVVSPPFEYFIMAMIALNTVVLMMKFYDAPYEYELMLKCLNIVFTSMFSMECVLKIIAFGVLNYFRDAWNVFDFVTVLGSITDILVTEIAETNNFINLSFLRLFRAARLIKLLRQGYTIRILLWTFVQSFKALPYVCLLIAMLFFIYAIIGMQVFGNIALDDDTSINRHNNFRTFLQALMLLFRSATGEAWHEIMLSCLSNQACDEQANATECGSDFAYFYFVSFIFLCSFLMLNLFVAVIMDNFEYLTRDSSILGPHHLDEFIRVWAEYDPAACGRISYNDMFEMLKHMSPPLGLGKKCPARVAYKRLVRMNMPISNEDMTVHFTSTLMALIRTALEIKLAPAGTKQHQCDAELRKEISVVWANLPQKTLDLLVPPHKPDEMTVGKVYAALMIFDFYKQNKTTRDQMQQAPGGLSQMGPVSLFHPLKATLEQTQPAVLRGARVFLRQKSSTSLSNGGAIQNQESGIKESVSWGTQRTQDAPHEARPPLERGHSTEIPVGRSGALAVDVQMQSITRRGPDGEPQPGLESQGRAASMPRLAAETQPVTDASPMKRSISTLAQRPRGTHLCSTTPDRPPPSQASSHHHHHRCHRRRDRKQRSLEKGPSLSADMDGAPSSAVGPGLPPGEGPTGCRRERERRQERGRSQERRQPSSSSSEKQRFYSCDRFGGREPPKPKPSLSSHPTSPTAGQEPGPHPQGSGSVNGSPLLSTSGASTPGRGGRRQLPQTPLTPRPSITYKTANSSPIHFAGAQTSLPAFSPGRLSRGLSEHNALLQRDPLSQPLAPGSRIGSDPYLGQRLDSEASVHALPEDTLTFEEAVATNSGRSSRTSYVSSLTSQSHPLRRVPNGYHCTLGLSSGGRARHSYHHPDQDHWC
N-type calcium channel, sequence (P54284 whole entry partner): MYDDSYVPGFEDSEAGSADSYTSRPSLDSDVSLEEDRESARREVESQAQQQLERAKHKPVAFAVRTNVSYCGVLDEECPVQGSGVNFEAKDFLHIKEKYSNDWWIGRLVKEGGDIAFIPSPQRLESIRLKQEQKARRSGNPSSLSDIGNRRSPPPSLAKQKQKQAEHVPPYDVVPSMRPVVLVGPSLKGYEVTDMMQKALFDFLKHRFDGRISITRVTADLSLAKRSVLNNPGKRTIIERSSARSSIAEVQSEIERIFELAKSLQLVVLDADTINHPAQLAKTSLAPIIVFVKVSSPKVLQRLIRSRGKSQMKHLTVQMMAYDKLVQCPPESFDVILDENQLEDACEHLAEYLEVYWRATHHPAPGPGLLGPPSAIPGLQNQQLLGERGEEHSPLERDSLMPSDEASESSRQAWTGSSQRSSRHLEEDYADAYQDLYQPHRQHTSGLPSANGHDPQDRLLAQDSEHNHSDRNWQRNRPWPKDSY
N-type calcium channel, sequence (P54289 25-1103 partner): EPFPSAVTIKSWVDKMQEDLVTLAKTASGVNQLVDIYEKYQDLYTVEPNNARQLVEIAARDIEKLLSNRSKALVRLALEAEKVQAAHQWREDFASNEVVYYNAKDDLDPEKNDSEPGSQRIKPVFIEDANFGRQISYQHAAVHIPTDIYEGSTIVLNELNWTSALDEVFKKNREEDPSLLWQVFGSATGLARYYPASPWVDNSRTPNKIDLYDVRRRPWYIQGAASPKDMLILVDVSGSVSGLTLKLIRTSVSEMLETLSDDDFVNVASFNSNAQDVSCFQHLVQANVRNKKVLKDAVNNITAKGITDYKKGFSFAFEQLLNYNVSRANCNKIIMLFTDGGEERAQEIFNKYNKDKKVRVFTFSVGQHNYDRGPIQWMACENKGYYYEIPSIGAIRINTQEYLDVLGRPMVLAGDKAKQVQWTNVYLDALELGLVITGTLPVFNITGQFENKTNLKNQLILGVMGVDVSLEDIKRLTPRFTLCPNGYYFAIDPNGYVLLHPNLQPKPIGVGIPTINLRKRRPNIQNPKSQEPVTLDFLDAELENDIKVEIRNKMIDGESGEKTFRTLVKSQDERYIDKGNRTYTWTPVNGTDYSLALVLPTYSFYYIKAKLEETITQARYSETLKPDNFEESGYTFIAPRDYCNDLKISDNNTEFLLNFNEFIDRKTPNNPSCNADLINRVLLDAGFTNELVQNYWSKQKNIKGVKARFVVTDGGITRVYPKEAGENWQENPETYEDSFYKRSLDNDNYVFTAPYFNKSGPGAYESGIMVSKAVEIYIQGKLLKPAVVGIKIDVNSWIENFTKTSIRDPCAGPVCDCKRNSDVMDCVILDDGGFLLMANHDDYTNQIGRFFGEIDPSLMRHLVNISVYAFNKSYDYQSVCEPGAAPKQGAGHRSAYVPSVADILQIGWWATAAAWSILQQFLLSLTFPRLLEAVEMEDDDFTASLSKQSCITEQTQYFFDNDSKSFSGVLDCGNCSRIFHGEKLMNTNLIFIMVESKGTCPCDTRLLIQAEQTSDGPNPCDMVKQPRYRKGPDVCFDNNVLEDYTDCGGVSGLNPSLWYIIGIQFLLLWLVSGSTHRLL
N-type calcium channel (α1B (Cav2.2), β3 and α2δ subunits) in stable HEK cell line, sequence (Q00975 whole entry): as the sequence (Q00975 whole entry) above
N-type calcium channel (α1B (Cav2.2), β3 and α2δ subunits) in stable HEK cell line, sequence (P54284 whole entry partner): as the sequence (P54284 whole entry partner) above
N-type calcium channel (α1B (Cav2.2), β3 and α2δ subunits) in stable HEK cell line, sequence (P54289 25-1103 partner): as the sequence (P54289 25-1103 partner) above

In the case of `COc1ccccc1-n1nc(OC2CN(S(=O)(=O)c3c(C)noc3C)C2)cc1-c1ccc(Cl)cc1` [Compound 30, 4-[(3-{[5-(4-Chlorophenyl)-1-(2-methoxyphenyl)-1H-pyrazol-3-yl]oxy}azetidin-1-yl)sulfonyl]-3,5-dimethylisoxazole], the inhibition (usually the relative decrease from the control value, in per cent) at 0.33 µM in test [1] was 93%. Besides, in test [1], the half-maximal inhibitory concentration (IC50) – broadly, the concentration needed to halve the response being measured – stood at 8 nM. Further, the inhibition at 0.1 µM on N-type calcium channel (setting [2]) turned out to be 53%; on N-type calcium channel (setting [3]), 30%.
For `CC(C)Oc1ccccc1-n1nc(OC2CCN(S(C)(=O)=O)CC2)cc1-c1ccc(Cl)cc1` [Compound 20, 4-({5-(4-Chlorophenyl)-1-[2-(1-methylethoxy)phenyl]-1H-pyrazol-3-yl}oxy)-1-(methylsulfonyl)piperidine], the IC50 in test [1] came out at 21.5 nM. For the same compound, the inhibition at 0.1 µM came out at 37% on N-type calcium channel (setting [2]) and 24% on N-type calcium channel (setting [3]).
Consider `COc1ccccc1-n1nc(OC2CCN(S(=O)(=O)C3CC3)CC2)cc1-c1ccc(Cl)cc1` [Compound 15, 4-{[5-(4-Chlorophenyl)-1-(2-methoxyphenyl)-1H-pyrazol-3-yl]oxy}-1-(cyclopropylsulfonyl)piperidine], for which, in test [1], the IC50 is 9 nM. Further, the inhibition at 0.1 µM at N-type calcium channel (setting [2]) is 55%; on N-type calcium channel (setting [3]), 25%.
`COc1ccccc1-n1nc(OC2CN(S(C)(=O)=O)C2)cc1-c1ccc(Cl)cc1` [Compound 26, 5-(4-Chlorophenyl)-1-(2-methoxyphenyl)-3-{[1-(methylsulfonyl)azetidin-3-yl]oxy}-1H-pyrazole]: in test [1], the inhibition at 0.33 µM turned out to be 91% and the IC50 came out at 31 nM. Further, the inhibition at 0.1 µM on N-type calcium channel (setting [2]) is 40%. In addition, the inhibition at 0.1 µM at N-type calcium channel (setting [3]) worked out at 37%.
As for `COc1ccccc1-n1nc(OC2CC(C)(C)SC(C)(C)C2)cc1-c1ccc(C#N)cc1` [Compound 44, 4-{1-(2-Methoxyphenyl)-3-[(2,2,6,6-tetramethyltetrahydro-2H-thiopyran-4-yl)oxy]-1H-pyrazol-5-yl}benzonitrile], in test [1], the inhibition at 0.33 µM came out at 87% and the IC50 came to 12 nM.
With `COc1ccccc1-n1nc(O[C@H]2CC[C@@H](NC(=O)C(F)(F)F)CC2)cc1-c1ccc(Cl)cc1` [Compound 13, N-(cis-4-{[5-(4-Chlorophenyl)-1-(2-methoxyphenyl)-1H-pyrazol-3-yl]oxy}cyclohexyl)-2,2,2-trifluoroacetamide], the IC50 in test [1] turned out to be 11 nM.
`COc1ccc(-c2cc(OC3CC(C)(C)OC(C)(C)C3)nn2-c2ccccc2OC)cc1` [Compound 31, 1-(2-Methoxyphenyl)-5-(4-methoxyphenyl)-3-[(2,2,6,6-tetramethyltetrahydro-2H-pyran-4-yl)oxy]-1H-pyrazole]: in test [1], the inhibition at 0.33 µM worked out at 97% and the IC50 was 9.4 nM. Moreover, the inhibition at 0.1 µM at N-type calcium channel (setting [2]) was 44%. Besides, on N-type calcium channel (setting [3]), the inhibition at 0.1 µM was determined as 28%.
`COc1ccccc1-n1nc(OC2CCN(C(=O)N(C)C)CC2)cc1-c1ccc(Cl)cc1` [Compound 4, 4-{[5-(4-Chlorophenyl)-1-(2-methoxyphenyl)-1H-pyrazol-3-yl]oxy}-N,N-dimethylpiperidine-1-carboxamide]: the IC50 in test [1] is 14 nM.
With `COc1ccccc1-n1nc(O[C@H]2CC(C)(C)[S@+]([O-])C(C)(C)C2)cc1-c1ccc(Cl)cc1.O=C(O)C(F)(F)F` [Compound 38, (1r,4r)-4-((5-(4-chlorophenyl)-1-(2-methoxyphenyl)-1H-pyrazol-3-yl)oxy)-2,2,6,6-tetramethyltetrahydro-2H-thiopyran 1-oxide trifluoroacetate], in test [1], the “% Inhibition (%) at 0.33 μM” value was 98% and the IC50 was 2.7 nM.
Take `COc1ccccc1-n1nc(OC2CCC(=O)CC2)cc1-c1ccc(Cl)cc1` [Compound 2, 4-{[5-(4-Chlorophenyl)-1-(2-methoxyphenyl)-1H-pyrazol-3-yl]oxy}cyclohexanone]: in test [1], the IC50 was found to be 28 nM.
Consider `CCc1ccccc1-n1nc(OC2CCN(C(=O)OC(C)(C)C)CC2)cc1-c1ccc(Cl)cc1` [Compound 18, tert-Butyl 4-{[5-(4-chlorophenyl)-1-(2-ethylphenyl)-1H-pyrazol-3-yl]oxy}piperidine-1-carboxylate], for which the IC50 in test [1] came out at 50 nM.
For `COc1ccc(-c2cc(O[C@H]3CC(C)(C)[S@@+]([O-])C(C)(C)C3)nn2-c2ccccc2OC)cc1` [Compound 35, (1s,4s)-4-((1-(2-methoxyphenyl)-5-(4-methoxyphenyl)-1H-pyrazol-3-yl)oxy)-2,2,6,6-tetramethyltetrahydro-2H-thiopyran 1-oxide], in test [1], the “% Inhibition (%) at 0.33 μM” value is reported as 91% and the IC50 was 7.6 nM.
As for `COc1ccccc1-n1nc(OC2CCN(C(C)=O)CC2)cc1-c1ccc(Cl)cc1` [Compound 3, 1-Acetyl-4-{[5-(4-chlorophenyl)-1-(2-methoxyphenyl)-1H-pyrazol-3-yl]oxy}piperidine], the IC50 in test [1] was 26 nM.
As to `CC(C)Oc1ccccc1-n1nc(OC2CCN(S(=O)(=O)C(C)C)CC2)cc1-c1ccc(Cl)cc1` [Compound 28, 4-({5-(4-Chlorophenyl)-1-[2-(1-methylethoxy)phenyl]-1H-pyrazol-3-yl}oxy)-1-[(1-methylethyl)sulfonyl]piperidine], in test [1], the inhibition at 0.33 µM was 96% and the half-inhibitory concentration (IC50) came to 7 nM.
The corresponding values for `COc1ccccc1-n1nc(OC2CN(C(=O)c3ccccc3)C2)cc1-c1ccc(Cl)cc1` [Compound 27, 5-(4-Chlorophenyl)-1-(2-methoxyphenyl)-3-{[1-(phenylcarbonyl)azetidin-3-yl]oxy}-1H-pyrazole] are 87% and 85 nM.
Turning to `COc1ccc(-c2cc(OC3CC(C)(C)S(=O)(=O)C(C)(C)C3)nn2-c2ccccc2OC)cc1` [Compound 33, 1-(2-Methoxyphenyl)-5-(4-methoxyphenyl)-3-[(2,2,6,6-tetramethyl-1,1-dioxidotetrahydro-2H-thiopyran-4-yl)oxy]-1H-pyrazole], in test [1], the inhibition at 0.33 µM was 94% and the IC50 is 3 nM.
